According to patent US8471005B2 (Cephalon, Inc., priority 2008, dated 2013):
Read-outs that look alike come from different tables or passages of the source.

Key:
JAK2 = molecular target: T1, JAK2 (Homo sapiens, UniProt O60674); assay: Recombinant Human JAK2 Kinase Assay (TRF); assay type: biochemical; conditions: read-out: JAK2 Potency
T1 construct: host or cells: baculovirus expression system
Method in brief: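 Europium-labelled PY100 antibody reported tyrosine phosphorylation of a Neutravidin-captured biotinyl 15-mer peptide by JAK2 (baculovirus-expressed, 15 ng/ml). Conditions: 20 mM HEPES pH 7.2, 0.2 μM ATP, 1 mM MnCl2, 0.1% BSA, DMSO 2.5% final, 20 min at room temperature.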

ALK = molecular target: T2, ALK (Homo sapiens, UniProt Q9UM73); assay: ALK Kinase Assay (ELISA/TRF, PLC-γ substrate); assay type: biochemical; conditions: read-out: ALK Potency
T2 construct: host or cells: baculovirus expression system
Method in brief: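 PLC-γ substrate coated at 10 μg/mL in TBS; reaction started with 30 ng/ml ALK, run 15 min at 37° C. Phosphoproduct detected by TRF with Eu-N1-labeled PT66 anti-phosphotyrosine antibody. IC50 from sigmoidal variable-slope fit of percent inhibition versus log concentration.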

[1] = JAK2 kinase inhibition, 0.2 μM ATP
[2] = ALK kinase inhibition, 1 μM ATP

T1 sequence (O60674 whole entry): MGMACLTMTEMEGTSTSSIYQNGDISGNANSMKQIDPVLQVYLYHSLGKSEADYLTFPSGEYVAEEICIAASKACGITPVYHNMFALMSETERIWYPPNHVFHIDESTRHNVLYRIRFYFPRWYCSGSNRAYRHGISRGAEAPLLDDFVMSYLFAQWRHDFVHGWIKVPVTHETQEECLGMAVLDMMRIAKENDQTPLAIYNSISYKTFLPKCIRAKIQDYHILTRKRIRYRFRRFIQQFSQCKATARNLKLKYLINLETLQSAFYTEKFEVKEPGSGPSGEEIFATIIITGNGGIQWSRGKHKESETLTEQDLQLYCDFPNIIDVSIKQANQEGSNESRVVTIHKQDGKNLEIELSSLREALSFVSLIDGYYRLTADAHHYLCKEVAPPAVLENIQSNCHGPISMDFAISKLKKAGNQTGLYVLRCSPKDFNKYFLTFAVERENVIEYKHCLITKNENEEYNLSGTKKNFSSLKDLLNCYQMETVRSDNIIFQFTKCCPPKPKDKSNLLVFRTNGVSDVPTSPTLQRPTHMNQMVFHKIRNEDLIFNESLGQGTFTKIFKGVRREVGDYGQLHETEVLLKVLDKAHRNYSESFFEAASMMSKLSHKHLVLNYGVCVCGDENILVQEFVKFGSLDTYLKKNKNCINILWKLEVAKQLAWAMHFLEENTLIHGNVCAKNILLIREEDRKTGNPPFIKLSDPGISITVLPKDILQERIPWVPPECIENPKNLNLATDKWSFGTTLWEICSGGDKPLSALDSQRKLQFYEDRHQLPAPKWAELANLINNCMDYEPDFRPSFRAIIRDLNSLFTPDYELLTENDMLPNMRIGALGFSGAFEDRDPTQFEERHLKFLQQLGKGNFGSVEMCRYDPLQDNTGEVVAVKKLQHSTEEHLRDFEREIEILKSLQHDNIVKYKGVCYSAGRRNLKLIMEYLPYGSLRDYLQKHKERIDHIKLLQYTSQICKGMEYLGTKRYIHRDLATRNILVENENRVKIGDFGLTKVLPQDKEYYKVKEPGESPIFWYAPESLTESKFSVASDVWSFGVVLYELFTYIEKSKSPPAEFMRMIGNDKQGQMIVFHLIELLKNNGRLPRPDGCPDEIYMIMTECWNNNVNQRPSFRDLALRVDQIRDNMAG
T2 sequence (Q9UM73 19-1620): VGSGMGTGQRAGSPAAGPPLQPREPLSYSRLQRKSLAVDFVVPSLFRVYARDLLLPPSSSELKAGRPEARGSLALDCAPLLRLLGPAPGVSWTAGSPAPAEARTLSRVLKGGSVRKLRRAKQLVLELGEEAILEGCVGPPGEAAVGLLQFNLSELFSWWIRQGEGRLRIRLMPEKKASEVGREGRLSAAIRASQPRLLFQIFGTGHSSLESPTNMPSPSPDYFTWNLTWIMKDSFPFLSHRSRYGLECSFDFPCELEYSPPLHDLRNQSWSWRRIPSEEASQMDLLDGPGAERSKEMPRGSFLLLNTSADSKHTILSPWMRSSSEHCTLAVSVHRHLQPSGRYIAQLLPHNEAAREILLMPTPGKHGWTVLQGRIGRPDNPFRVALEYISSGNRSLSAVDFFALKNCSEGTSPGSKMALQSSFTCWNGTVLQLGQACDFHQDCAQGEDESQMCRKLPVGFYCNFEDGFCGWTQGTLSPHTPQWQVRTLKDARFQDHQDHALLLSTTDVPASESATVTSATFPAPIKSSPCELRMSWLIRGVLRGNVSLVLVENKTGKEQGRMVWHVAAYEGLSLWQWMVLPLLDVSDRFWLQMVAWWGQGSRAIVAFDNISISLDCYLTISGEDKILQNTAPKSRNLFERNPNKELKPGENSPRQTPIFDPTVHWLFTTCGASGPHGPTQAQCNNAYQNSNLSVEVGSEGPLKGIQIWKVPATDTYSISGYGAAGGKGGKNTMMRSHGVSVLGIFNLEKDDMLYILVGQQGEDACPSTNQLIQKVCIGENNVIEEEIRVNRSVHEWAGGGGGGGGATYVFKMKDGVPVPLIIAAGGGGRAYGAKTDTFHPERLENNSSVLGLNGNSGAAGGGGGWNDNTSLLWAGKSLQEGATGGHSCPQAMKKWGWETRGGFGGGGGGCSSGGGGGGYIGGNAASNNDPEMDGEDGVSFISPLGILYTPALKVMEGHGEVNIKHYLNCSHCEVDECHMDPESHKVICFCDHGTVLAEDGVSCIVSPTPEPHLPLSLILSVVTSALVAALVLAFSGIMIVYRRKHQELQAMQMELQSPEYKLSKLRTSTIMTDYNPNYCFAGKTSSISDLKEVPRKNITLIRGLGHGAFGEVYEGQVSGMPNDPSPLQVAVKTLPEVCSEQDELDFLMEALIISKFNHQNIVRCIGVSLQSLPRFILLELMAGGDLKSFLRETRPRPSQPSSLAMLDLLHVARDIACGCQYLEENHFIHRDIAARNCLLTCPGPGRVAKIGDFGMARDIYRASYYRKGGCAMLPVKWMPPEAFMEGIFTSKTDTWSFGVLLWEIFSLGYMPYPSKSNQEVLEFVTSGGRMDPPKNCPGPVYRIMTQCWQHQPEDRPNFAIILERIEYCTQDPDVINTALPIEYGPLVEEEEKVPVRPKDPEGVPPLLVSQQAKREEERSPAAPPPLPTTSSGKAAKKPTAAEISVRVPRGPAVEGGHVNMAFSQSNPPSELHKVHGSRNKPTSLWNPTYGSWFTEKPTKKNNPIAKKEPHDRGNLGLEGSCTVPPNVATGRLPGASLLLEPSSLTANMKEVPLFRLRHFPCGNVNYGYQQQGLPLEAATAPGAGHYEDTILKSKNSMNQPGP

| IC50 (JAK2; [1]) | IC50 (ALK; [2]) | IC50 (JAK2; JAK2 Kinase Inhibition) | IC50 (ALK; ALK Kinase Inhibition) | Molecule |
| --- | --- | --- | --- | --- |
| < 100 nM | < 100 nM |  |  | CN1CCN(c2ccc(Nc3ncc4ccc(-c5ccccc5O)n4n3)cc2)CC1 [Example 1154, 2-{2-[4-(4-Methyl-piperazin-1-yl)-phenylamino]-pyrrolo[2,1-f][1,2,4]triazin-7-yl}-phenol] |
|  |  | < 100 nM | < 100 nM | COc1ncccc1-c1ccc2cnc(Nc3ccc(N4CCN(C)CC4)cc3)nn12 [Example 22, [7-(2-Methoxy-pyridin-3-yl)-pyrrolo[2,1-f][1,2,4]triazin-2-yl]-[4-(4-methyl-piperazin-1-yl)-phenyl]-amine] |
| < 100 nM | 1000 to 10000 nM |  |  | COc1ccc(-c2ccc3cnc(Nc4ccc(N5CCOCC5)cc4)nn23)cn1 [Example 1105, [7-(6-Methoxy-pyridin-3-yl)-pyrrolo[2,1-f][1,2,4]triazin-2-yl]-(4-morpholin-4-yl-phenyl)-amine] |
|  |  | < 100 nM | 1000 to 10000 nM | CN1CCN(c2ccc(Nc3ncc4ccc(CNc5ccccc5)n4n3)cc2)CC1 [Example 363, [4-(4-Methyl-piperazin-1-yl)-phenyl]-(7-phenylaminomethyl-pyrrolo[2,1-f][1,2,4]triazin-2-yl)-amine] |
|  |  | < 100 nM | 100 to 1000 nM | CN1CCN(c2ccc(Nc3ncc4ccc(-c5cccc(NS(C)(=O)=O)c5)n4n3)cc2)CC1 [Example 379, N-(3-{2-[4-(4-Methyl-piperazin-1-yl)-phenylamino]-pyrrolo[2,1-f][1,2,4]triazin-7-yl}-phenyl)-methanesulfonamide] |
| < 100 nM | > 10000 nM |  |  | O=S(=O)(c1cccc(-c2ccc3cnc(Nc4ccc(-c5cccnc5)cc4)nn23)c1)N1CCCC1 [Example 1086, (4-Pyridin-3-yl-phenyl)-{7-[3-(pyrrolidine-1-sulfonyl)-phenyl]-pyrrolo[2,1-f][1,2,4]triazin-2-yl}-amine] |
|  |  | < 100 nM | 100 to 1000 nM | OCCN1CCN(c2ccc(Nc3ncc4ccc(-c5cccnc5)n4n3)cc2)CC1 [Example 115, 2-{4-[4-(7-Pyridin-3-yl-pyrrolo[2,1-f][1,2,4]triazin-2-ylamino)-phenyl]-piperazin-1-yl}-ethanol] |
| 1000 to 10000 nM | > 10000 nM |  |  | CN1CCN(c2ccc(Nc3ncc4c(-c5cccc(F)c5)ccn4n3)cc2)CC1 [Example 730, [5-(3-Fluoro-phenyl)-pyrrolo[2,1-f][1,2,4]triazin-2-yl]-[4-(4-methyl-piperazin-1-yl)-phenyl]-amine] |
|  |  | < 100 nM | 1000 to 10000 nM | COc1ccc(-c2ccc3cnc(Nc4ccc5nc(CN6CCN(CCO)CC6)[nH]c5c4)nn23)cn1 [Example 1523, 2-(4-{6-[7-(6-Methoxy-pyridin-3-yl)-pyrrolo[2,1-f][1,2,4]triazin-2-ylamino]-1H-benzimidazol-2-ylmethyl}-piperazin-1-yl)-ethanol] |

The next lines start with the molecule.

| Molecule | IC50 (JAK2; [1]) | IC50 (ALK; [2]) | IC50 (JAK2; JAK2 Kinase Inhibition) | IC50 (ALK; ALK Kinase Inhibition) |
| --- | --- | --- | --- | --- |
| CN(c1ccccc1-c1ccc2cnc(Nc3ccc4nc(C(C)(C)C)[nH]c4c3)nn12)S(C)(=O)=O [Example 1341, N-{2-[2-(2-tert-Butyl-3H-benzimidazol-5-ylamino)-pyrrolo[2,1-f][1,2,4]triazin-7-yl]-phenyl}-N-methyl-methanesulfonamide] | < 100 nM | 100 to 1000 nM |  |  |
| CN(c1ccccc1-c1ccc2cnc(OCCN3CCN(c4ccc(N)cc4)CC3)nn12)S(C)(=O)=O [Example 1172, N-[2-(2-{2-[4-(4-Amino-phenyl)-piperazin-1-yl]-ethoxy}-pyrrolo[2,1-f][1,2,4]triazin-7-yl)-phenyl]-N-methyl-methanesulfonamide] | 1000 to 10000 nM | > 10000 nM |  |  |
| COCCOc1ncc2ccc(-c3cccc(Cl)c3)n2n1 [Example 190, 7-(3-Chloro-phenyl)-2-(2-methoxy-ethoxy)-pyrrolo[2,1-f][1,2,4]triazine] |  |  | < 100 nM | > 10000 nM |
| CS(=O)(=O)c1ccc(-c2ccc3cnc(Nc4ccc5nc[nH]c5c4)nn23)cc1 [Example 1304, (3H-Benzimidazol-5-yl)-[7-(4-methanesulfonyl-phenyl)-pyrrolo[2,1-f][1,2,4]triazin-2-yl]-amine] | < 100 nM | 100 to 1000 nM |  |  |
| COc1ccccc1-c1ccc2cnc(C#N)nn12 [Example 1494, 7-(2-Methoxy-phenyl)-pyrrolo[2,1-f][1,2,4]triazine-2-carbonitrile] |  |  | > 10000 nM | > 10000 nM |
| COc1cc(C2CCN(C(=O)CN)CC2)ccc1Nc1ncc2ccc(-c3ccccc3OC)n2n1 [Example 823, 2-Amino-1-(4-{3-methoxy-4-[7-(2-methoxy-phenyl)-pyrrolo[2,1-f][1,2,4]triazin-2-ylamino]-phenyl}-piperidin-1-yl)-ethanone] | 100 to 1000 nM | < 100 nM |  |  |
| COc1cc(CN2CCOCC2)ccc1Nc1ncc2ccc(-c3ccccc3N(C)S(C)(=O)=O)n2n1 [Example 1221, N-{2-[2-(2-Methoxy-4-morpholin-4-ylmethyl-phenylamino)-pyrrolo[2,1-f][1,2,4]triazin-7-yl]-phenyl}-N-methyl-methanesulfonamide] | 1000 to 10000 nM | < 100 nM |  |  |
| COc1cc(C2CCN(C[C@@H](C)O)CC2)ccc1Nc1ncc2ccc(-c3cc(Cl)ccc3OC)n2n1 [Example 794, (R)-1-(4-{4-[7-(5-Chloro-2-methoxy-phenyl)-pyrrolo[2,1-f][1,2,4]triazin-2-ylamino]-3-methoxy-phenyl}-piperidin-1-yl)-propan-2-ol] | 100 to 1000 nM | < 100 nM |  |  |
| COc1cc([C@@H]2CCN(CCF)C[C@@H]2O)ccc1Nc1ncc2ccc(-c3ccccc3OC)n2n1 (racemic) [Example 838, (±)-(3R,4S)-1-(2-Fluoro-ethyl)-4-{3-methoxy-4-[7-(2-methoxy-phenyl)-pyrrolo[2,1-f][1,2,4]triazin-2-ylamino]-phenyl}-piperidin-3-ol] | < 100 nM | < 100 nM |  |  |
| COc1ccccc1-c1ccc2cnc(Nc3ccc4nc(C(F)(F)F)[nH]c4c3)nn12 [Example 1305] | < 100 nM | 1000 to 10000 nM |  |  |
| CN1CCN(C)C(c2cccc(Nc3ncc4ccc(-c5cccc(S(C)(=O)=O)c5)n4n3)c2)C1=O (stereo not shown) [Example 1080, 3-{3-[7-(3-Methanesulfonyl-phenyl)-pyrrolo[2,1-f][1,2,4]triazin-2-ylamino]-phenyl}-1,4-dimethyl-piperazin-2-one] | < 100 nM | 1000 to 10000 nM |  |  |
| COc1cc(N2CCCN(C[C@@H](C)O)CC2)ccc1Nc1ncc2ccc(-c3ccccc3OC)n2n1 [Example 766, (R)-1-(4-{3-Methoxy-4-[7-(2-methoxy-phenyl)-pyrrolo[2,1-f][1,2,4]triazin-2-ylamino]-phenyl}-[1,4]diazepan-1-yl)-propan-2-ol] | < 100 nM | < 100 nM |  |  |
| COc1cc(C2CCN(C[C@H](Oc3ncc4ccc(-c5ccccc5OC)n4n3)C(F)(F)F)CC2)ccc1N [Example 786, 2-Methoxy-4-(1-{(S)-3,3,3-trifluoro-2-[7-(2-methoxy-phenyl)-pyrrolo[2,1-f][1,2,4]triazin-2-yloxy]-propyl}-piperidin-4-yl)-phenylamine] | > 10000 nM | > 10000 nM |  |  |
| 2-Methyl-propane-2-sulfonic acid (3-{2-[4-(4-diethylamino-piperidin-1-yl)-phenylamino]-pyrrolo[2,1-f][1,2,4]triazin-7-yl}-phenyl)-amide [Example 1217] | < 100 nM | < 100 nM |  |  |
